One substance from patent US10640487B2, “Solid state forms of Nilotinib salts” (Teva Pharmaceuticals USA, Inc., priority 2016, dated 2020) can be followed below.

Data set [1] can be described thus: Long term and accelerated storage stability of the solid state form. In kind it is physicochemical.
The nature of data set [2]: Thermodynamic stability (resistance to polymorphic conversion) compared with forms I and II of WO'222. In kind it is physicochemical. The settings on record: compared to forms I and II of Nilotinib fumarate described in WO'222.
Excerpt: As used herein, and unless indicated otherwise, the term “thermo-dynamical stability” in relation to solid state forms of the present disclosure refers to resistance of the solid state form to polymorphic conversion under certain conditions, for example, heating, melting or dissolving. […] In some embodiments, the conversion is about 1% (w/w) to about 20% (w/w), about 1% (w/w) to about 10% (w/w) or about 1% (w/w) to about 5% (w/w).

“Nilotinib fumarate [Form III of Nilotinib fumarate]”: the “chemical and polymorphic stability” value in data set [1] (accelerated stability conditions at 25° C./60% RH with desiccant) was “chemically and polymorphically stable”; in data set [1] (long term stability conditions at 5° C.), “chemically and polymorphically stable”. The thermodynamic stability result in data set [2] is recorded as “thermodynamically more stable”.
